Active and inactive are the calls of the source. The calls are words filed in the database; no cut-off is given here.
Key:
Format in all cases: functional
Bacillus subtilis [1] = test: Antibacterial activity against Bacillus subtilis at 25 ug/ml after 24 hrs by agar well diffusion method; details: read-out: DIZ
Aspergillus niger [2] = test: Antifungal activity against Aspergillus niger at 100 ug/ml after 48 hrs by agar well diffusion method
Staphylococcus aureus [3] = test: Antibacterial activity against Staphylococcus aureus at 50 ug/ml after 24 hrs by agar well diffusion method
Fusarium verticillioides [4] = test: Antifungal activity against Fusarium moniliforme at 100 ug/ml after 48 hrs by agar well diffusion method
Bacillus subtilis [5] = test: Antibacterial activity against Bacillus subtilis at 100 ug/ml after 24 hrs by agar well diffusion method; details: read-out: DIZ
Aspergillus niger [6] = test: Antifungal activity against Aspergillus niger at 50 ug/ml after 48 hrs by agar well diffusion method
Escherichia coli [7] = test: Antibacterial activity against Escherichia coli at 100 ug/ml after 24 hrs by agar well diffusion method; details: read-out: DIZ
Staphylococcus aureus [8] = test: Antibacterial activity against methicillin resistant Staphylococcus aureus MRSA090 at 100 ug/ml after 24 hrs by agar well diffusion method; details: MRSA090, 24 h, read-out: DIZ
Fusarium oxysporum [9] = test: Antifungal activity against Fusarium oxysporum at 75 ug/ml after 48 hrs by agar well diffusion method
Fusarium oxysporum [10] = test: Antifungal activity against Fusarium oxysporum at 50 ug/ml after 48 hrs by agar well diffusion method
Fusarium oxysporum [11] = test: Antifungal activity against Fusarium oxysporum at 25 ug/ml after 48 hrs by agar well diffusion method
Fusarium verticillioides [12] = test: Antifungal activity against Fusarium moniliforme at 50 ug/ml after 48 hrs by agar well diffusion method
Bacillus subtilis [13] = test: Antibacterial activity against Bacillus subtilis at 75 ug/ml after 24 hrs by agar well diffusion method; details: read-out: DIZ
Fusarium verticillioides [14] = test: Antifungal activity against Fusarium moniliforme at 75 ug/ml after 48 hrs by agar well diffusion method
Escherichia coli [15] = test: Antibacterial activity against Escherichia coli at 25 ug/ml after 24 hrs by agar well diffusion method; details: read-out: DIZ
Staphylococcus aureus [16] = test: Antibacterial activity against methicillin resistant Staphylococcus aureus MRSA090 at 50 ug/ml after 24 hrs by agar well diffusion method; details: MRSA090, 24 h, read-out: DIZ
Aspergillus niger [17] = test: Antifungal activity against Aspergillus niger at 25 ug/ml after 48 hrs by agar well diffusion method
Staphylococcus aureus [18] = test: Antibacterial activity against methicillin resistant Staphylococcus aureus MRSA090 at 75 ug/ml after 24 hrs by agar well diffusion method; details: MRSA090, 24 h, read-out: DIZ
Aspergillus niger [19] = test: Antifungal activity against Aspergillus niger at 75 ug/ml after 48 hrs by agar well diffusion method
Klebsiella pneumoniae [20] = test: Antibacterial activity against Klebsiella pneumoniae at 75 ug/ml after 24 hrs by agar well diffusion method; details: read-out: DIZ
Fusarium oxysporum [21] = test: Antifungal activity against Fusarium oxysporum at 100 ug/ml after 48 hrs by agar well diffusion method
Escherichia coli [22] = test: Antibacterial activity against Escherichia coli at 75 ug/ml after 24 hrs by agar well diffusion method; details: read-out: DIZ
Klebsiella pneumoniae [23] = test: Antibacterial activity against Klebsiella pneumoniae at 100 ug/ml after 24 hrs by agar well diffusion method; details: read-out: DIZ
Bacillus subtilis [24] = test: Antibacterial activity against Bacillus subtilis at 50 ug/ml after 24 hrs by agar well diffusion method; details: read-out: DIZ
Escherichia coli [25] = test: Antibacterial activity against Escherichia coli at 50 ug/ml after 24 hrs by agar well diffusion method; details: read-out: DIZ
Staphylococcus aureus [26] = test: Antibacterial activity against Staphylococcus aureus at 25 ug/ml after 24 hrs by agar well diffusion method
Klebsiella pneumoniae [27] = test: Antibacterial activity against Klebsiella pneumoniae at 50 ug/ml after 24 hrs by agar well diffusion method
Klebsiella pneumoniae [28] = test: Antibacterial activity against Klebsiella pneumoniae at 25 ug/ml after 24 hrs by agar well diffusion method
Staphylococcus aureus [29] = test: Antibacterial activity against Staphylococcus aureus at 100 ug/ml after 24 hrs by agar well diffusion method
Staphylococcus aureus [30] = test: Antibacterial activity against Staphylococcus aureus at 75 ug/ml after 24 hrs by agar well diffusion method
Fusarium verticillioides [31] = test: Antifungal activity against Fusarium moniliforme at 25 ug/ml after 48 hrs by agar well diffusion method
Staphylococcus aureus [32] = test: Antibacterial activity against methicillin resistant Staphylococcus aureus MRSA090 at 25 ug/ml after 24 hrs by agar well diffusion method; details: MRSA090, 24 h, read-out: DIZ

Structure (SMILES): Cc1cccc2nc(N/N=C/c3ccc(O)cc3Br)sc12
- zone of inhibition at 25 µg/mL (Bacillus subtilis [1]): 7 mm
- diameter of the inhibition zone (DIZ) (Aspergillus niger [2]): inactive
- diameter of the inhibition zone (DIZ) (Staphylococcus aureus [3]): inactive
- diameter of the inhibition zone (DIZ) (Fusarium verticillioides [4]): inactive
- zone of inhibition at 100 µg/mL (Bacillus subtilis [5]): 15 mm
- diameter of the inhibition zone (DIZ) (Aspergillus niger [6]): inactive
- zone of inhibition at 100 µg/mL (Escherichia coli [7]): 16 mm
- zone of inhibition at 100 µg/mL (Staphylococcus aureus [8]): 17 mm
- diameter of the inhibition zone (DIZ) (Fusarium oxysporum [9]): inactive
- diameter of the inhibition zone (DIZ) (Fusarium oxysporum [10]): inactive
- diameter of the inhibition zone (DIZ) (Fusarium oxysporum [11]): inactive
- diameter of the inhibition zone (DIZ) (Fusarium verticillioides [12]): inactive
- zone of inhibition at 75 µg/mL (Bacillus subtilis [13]): 13 mm
- diameter of the inhibition zone (DIZ) (Fusarium verticillioides [14]): inactive
- zone of inhibition at 25 µg/mL (Escherichia coli [15]): 6 mm
- zone of inhibition at 50 µg/mL (Staphylococcus aureus [16]): 11 mm
- diameter of the inhibition zone (DIZ) (Aspergillus niger [17]): inactive
- zone of inhibition at 75 µg/mL (Staphylococcus aureus [18]): 14 mm
- diameter of the inhibition zone (DIZ) (Aspergillus niger [19]): inactive
- zone of inhibition at 75 µg/mL (Klebsiella pneumoniae [20]): 11 mm
- diameter of the inhibition zone (DIZ) (Fusarium oxysporum [21]): inactive
- zone of inhibition at 75 µg/mL (Escherichia coli [22]): 11 mm
- zone of inhibition at 100 µg/mL (Klebsiella pneumoniae [23]): 14 mm
- zone of inhibition at 50 µg/mL (Bacillus subtilis [24]): 11 mm
- zone of inhibition at 50 µg/mL (Escherichia coli [25]): 9 mm
- diameter of the inhibition zone (DIZ) (Staphylococcus aureus [26]): inactive
- diameter of the inhibition zone (DIZ) (Klebsiella pneumoniae [27]): inactive
- diameter of the inhibition zone (DIZ) (Klebsiella pneumoniae [28]): inactive
- diameter of the inhibition zone (DIZ) (Staphylococcus aureus [29]): inactive
- diameter of the inhibition zone (DIZ) (Staphylococcus aureus [30]): inactive
- diameter of the inhibition zone (DIZ) (Fusarium verticillioides [31]): inactive
- zone of inhibition at 25 µg/mL (Staphylococcus aureus [32]): 7 mm

Structure (SMILES): Cc1cccc2nc(N/N=C/c3ccc(F)cc3)sc12
- zone of inhibition at 25 µg/mL (Bacillus subtilis [1]): 6 mm
- zone of inhibition at 100 µg/mL (Aspergillus niger [2]; read-out: DIZ): 22 mm
- zone of inhibition at 50 µg/mL (Staphylococcus aureus [3]; read-out: DIZ): 12 mm
- zone of inhibition at 100 µg/mL (Fusarium verticillioides [4]; read-out: DIZ): 30 mm
- zone of inhibition at 100 µg/mL (Bacillus subtilis [5]): 14 mm
- zone of inhibition at 50 µg/mL (Aspergillus niger [6]; read-out: DIZ): 13 mm
- zone of inhibition at 100 µg/mL (Escherichia coli [7]): 17 mm
- zone of inhibition at 100 µg/mL (Staphylococcus aureus [8]): 19 mm
- zone of inhibition at 75 µg/mL (Fusarium oxysporum [9]; read-out: DIZ): 18 mm
- zone of inhibition at 50 µg/mL (Fusarium oxysporum [10]; read-out: DIZ): 13 mm
- zone of inhibition at 25 µg/mL (Fusarium oxysporum [11]; read-out: DIZ): 10 mm
- zone of inhibition at 50 µg/mL (Fusarium verticillioides [12]; read-out: DIZ): 18 mm
- zone of inhibition at 75 µg/mL (Bacillus subtilis [13]): 12 mm
- zone of inhibition at 75 µg/mL (Fusarium verticillioides [14]; read-out: DIZ): 21 mm
- zone of inhibition at 25 µg/mL (Escherichia coli [15]): 5 mm
- zone of inhibition at 50 µg/mL (Staphylococcus aureus [16]): 12 mm
- zone of inhibition at 25 µg/mL (Aspergillus niger [17]; read-out: DIZ): 10 mm
- zone of inhibition at 75 µg/mL (Staphylococcus aureus [18]): 16 mm
- zone of inhibition at 75 µg/mL (Aspergillus niger [19]; read-out: DIZ): 18 mm
- zone of inhibition at 75 µg/mL (Klebsiella pneumoniae [20]): 16 mm
- zone of inhibition at 100 µg/mL (Fusarium oxysporum [21]; read-out: DIZ): 21 mm
- zone of inhibition at 75 µg/mL (Escherichia coli [22]): 14 mm
- zone of inhibition at 100 µg/mL (Klebsiella pneumoniae [23]): 19 mm
- zone of inhibition at 50 µg/mL (Bacillus subtilis [24]): 9 mm
- zone of inhibition at 50 µg/mL (Escherichia coli [25]): 9 mm
- zone of inhibition at 25 µg/mL (Staphylococcus aureus [26]; read-out: DIZ): 9 mm
- zone of inhibition at 50 µg/mL (Klebsiella pneumoniae [27]; read-out: DIZ): 11 mm
- zone of inhibition at 25 µg/mL (Klebsiella pneumoniae [28]; read-out: DIZ): 6 mm
- zone of inhibition at 100 µg/mL (Staphylococcus aureus [29]; read-out: DIZ): 18 mm
- zone of inhibition at 75 µg/mL (Staphylococcus aureus [30]; read-out: DIZ): 16 mm
- zone of inhibition at 25 µg/mL (Fusarium verticillioides [31]; read-out: DIZ): 14 mm
- zone of inhibition at 25 µg/mL (Staphylococcus aureus [32]): 8 mm

Reference: ChEMBL document CHEMBL4020788, “Synthesis, SAR and molecular docking studies of benzo[d]thiazole-hydrazones as potential antibacterial and antifungal agents” (2017)
